Values of other authors, collected in patent publication EP1227812B1 (SCHERING CORPORATION, priority 1999, dated 2001).

Settings: eight subjects tested, topical azatadine

## CN1CCC(=C2c3ccccc3CCc3cccnc32)CC1 [Azatadine, azatadine]
  drowsiness: drowsiness in one of the eight subjects tested
